Measured values as given in patent publication US20230365624A1, “NOVEL ANGIOTENSIN I-CONVERTING ENZYME (ACE) INHIBITORY PEPTIDES” (Thai Union Group Public Company Limited, priority 2020, published 2023).
Marks after values point to notes of the source that are not given here. No end group written: not given here.

What was measured:
[1] = target: angiotensin I-converting enzyme (ACE) (Homo sapiens, UniProt P12821); experiment: ACE inhibitory activity assay (HHL substrate, hippuric acid absorbance at 228 nm); assay type: biochemical; conditions: for inhibition at 1000 µg/mL: synthetic peptides at 1 mg/ml
Chain of angiotensin I-converting enzyme (ACE) (P12821 30-1306, species assumed): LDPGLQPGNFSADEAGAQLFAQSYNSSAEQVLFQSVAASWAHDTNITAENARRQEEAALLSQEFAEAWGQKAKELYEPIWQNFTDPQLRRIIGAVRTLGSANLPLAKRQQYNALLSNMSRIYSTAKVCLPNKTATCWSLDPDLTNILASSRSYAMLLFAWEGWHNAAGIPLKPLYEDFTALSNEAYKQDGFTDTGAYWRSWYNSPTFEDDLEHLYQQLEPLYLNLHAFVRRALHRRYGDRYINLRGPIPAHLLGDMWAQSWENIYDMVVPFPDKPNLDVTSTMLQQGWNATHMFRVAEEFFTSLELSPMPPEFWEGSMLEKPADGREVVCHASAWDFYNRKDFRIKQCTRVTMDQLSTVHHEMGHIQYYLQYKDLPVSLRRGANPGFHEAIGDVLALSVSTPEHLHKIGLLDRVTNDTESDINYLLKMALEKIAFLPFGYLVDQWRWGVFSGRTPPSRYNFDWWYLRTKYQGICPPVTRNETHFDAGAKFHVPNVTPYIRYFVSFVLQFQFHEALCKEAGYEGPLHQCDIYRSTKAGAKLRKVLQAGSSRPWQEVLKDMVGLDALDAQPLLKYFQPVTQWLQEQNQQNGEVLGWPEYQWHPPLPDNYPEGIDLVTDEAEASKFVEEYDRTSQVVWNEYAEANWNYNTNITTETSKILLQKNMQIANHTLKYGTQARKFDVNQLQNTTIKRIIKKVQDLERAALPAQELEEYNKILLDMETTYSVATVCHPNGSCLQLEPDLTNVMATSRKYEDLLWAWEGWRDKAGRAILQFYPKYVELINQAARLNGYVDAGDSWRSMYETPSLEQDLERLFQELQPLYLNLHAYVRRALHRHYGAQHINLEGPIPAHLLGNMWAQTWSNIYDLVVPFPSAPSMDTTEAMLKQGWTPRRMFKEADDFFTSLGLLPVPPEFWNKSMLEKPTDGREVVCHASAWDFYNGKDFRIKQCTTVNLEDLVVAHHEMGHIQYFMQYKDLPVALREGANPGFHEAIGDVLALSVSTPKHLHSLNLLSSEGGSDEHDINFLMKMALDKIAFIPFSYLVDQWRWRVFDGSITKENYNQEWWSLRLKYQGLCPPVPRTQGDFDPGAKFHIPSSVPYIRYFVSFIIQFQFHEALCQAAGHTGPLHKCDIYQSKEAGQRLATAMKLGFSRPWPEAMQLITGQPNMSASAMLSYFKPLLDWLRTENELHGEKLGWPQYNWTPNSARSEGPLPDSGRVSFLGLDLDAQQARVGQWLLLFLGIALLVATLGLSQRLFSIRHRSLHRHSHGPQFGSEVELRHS
Description: ACE inhibitory activity assay was carried out according to the methods of Cushman and Cheung (1971) and Wu et al. (2002) with some modifications. A reaction mixture containing 50 µl of hydrolysate or peptides, 150 µl of 8.3 mM Hippuryl-L-histidyl-L-leucine (HHL), and 50 µl of ACE (25 mU/ml) was incubated at 37° C. for 1 h. Subsequently, 250 µl of 1 M HCl was added to terminate the reaction. The released hippuric acid (HA) was extracted by adding 2.5 ml ethyl acetate, and the mixture was mixed with a vortex for 1 min and left at room temperature for 1 h. Then, 2 ml of the upper layer was transferred into beaker and dried at 80° C. to remove ethyl acetate. Finally, 1 ml of deionized water was added to dissolve the HA. Absorbance was measured at 228 nm. The percentage of ACE inhibition was calculated as follows: […]
where A is the absorbance at 228 nm of a reaction containing ACE without hydrolysate; B is the absorbance at 228 nm of a reaction containing ACE previously inactivated by adding HCl in the absence of hydrolysate; C is the absorbance at 228 nm of a reaction in the presence of ACE and hydrolysate; and D is the absorbance at 228 nm of a reaction containing ACE previously inactivated by adding HCl in the presence of hydrolysate. The IC50 was defined as the concentration of inhibitor required to inhibit 50% of the ACE activity. Specific inhibitory activity was calculated as ACE inhibition (%) divided by total peptide content (mg).

ACE = ACE (Homo sapiens, UniProt P12821); conditions: Wu et al. (2008); Balti et al. (2010); read-out: IC50 (ACE inhibition); cited from earlier work
Chain of ACE (P12821 30-1306, species assumed): as above

[2] = system: GI enzymes (pepsin and pancreatin); experiment: In vitro gastrointestinal (GI) digestion of synthetic peptides, with ACE inhibitory activity and α-amino group content before and after; assay type: in vitro ADME; conditions: pepsin pH 2.0, 37° C., 1 h, then pancreatin pH 7.5, 37° C., 2 h (FIG. 6)
Description: It is necessary for ACE inhibitory peptides to retain its activity in GI tract so that it can be absorbed into the bloodstream, where the peptide inhibitors can show their hypotensive effect. In vitro gastrointestinal digestion provides an easy process to imitate antihypertensive activity of peptides under oral administration. […] In vitro GI digestion was simulated according to the method of Zhu et al. (2008) with some modifications. One milligram of each sample was dissolved in 0.5 ml of 0.1 M KCl-HCl, and the pH was adjusted to 2.0 with 6 M HCl. Pepsin (1% enzyme/substrate, w/w) was added, and the mixture was incubated in a shaking water bath at 37° C. for 1 h, and the pH was then adjusted to pH 7.5. […] ACE inhibitory activity and α-amino groups content of the peptides before and after in vitro GI digestion were measured. […]
ACE inhibitory activity assay was carried out according to the methods of Cushman and Cheung (1971) and Wu et al. (2002) with some modifications. […] Absorbance was measured at 228 nm. The percentage of ACE inhibition was calculated as follows: […]
Content of α-amino groups was performed according to Adler-Nissen (1979). […] The mixture was left at room temperature for 30 min before an absorbance at 420 nm was monitored. […] The content of α-amino groups was expressed as leucine equivalents.

[3] = synthesized in silico GI digestion products of VR9

Substance | IC50 (ACE) [nM] | IC50 [1] [nM] | inhibition at 1000 µg/mL [1] [%] | also measured
INCR | – | – | – | ACE inhibitory activity (%) At 1 µg/ml ([1]; 1 µg/ml, synthesized in silico GI digestion products of VR9): 29.10 ± 1.06^c %; ACE inhibitory activity (%) At 1 mg/ml [1, 3]: 100.79 ± 0.71^c %
MAW | 16300 | – | – | –
NLLPHR [NLLPHR] | – | 1240 | 94.9 ± 0.97 | Decrease of ACE inhibitory activity after GI digestion [2]: approximately 30%
VIIF | 8700 | – | – | –
VIY [in silico GI digestion product of VR9] | – | – | – | ACE inhibitory activity (%) At 1 mg/ml [1, 3]: 18.51 ± 1.12^a %
VIYSRINCR [VIYSRINCR] | – | 240 | 97.02 ± 0.46 | Decrease of ACE inhibitory activity after GI digestion [2]: ~14%
VSVVQYSR [VSVVQYSR] | – | 950 | 94.15 ± 0.2 | –
VYAP | 6100 | – | – | –
